This passage reports T/C results from PubChem BioAssay AID328 (DTP/NCI, 2004).

“And” between values parts separate entries of the source, which are not always exact repeats. Equal entries are not always repeated. Inconclusive results and toxic doses are left out.

This assay has as its system BDF1 mice, P388 leukemia ip, median survival T/C. Nature of the assay: NCI In Vivo Anticancer Drug Screen. Data for tumor model P388 Leukemia (intraperitoneal) in B6D2F1 (BDF1) mice. The settings on record: endpoint: median survival time, higher = longer survival. Put shortly:
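Read-out is survival of treated animals expressed relative to the vehicle group, as a T/C ratio.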

Setting [1] is: dose: 100.0 mg/kg/injection, schedule: Q04DX003 (ip), vehicle: Klucel (hydroxypropylcellulose) (HPC).
The mark [2] stands for this setting: dose: 200.0 mg/kg/injection, schedule: Q04DX003 (ip), vehicle: Klucel (hydroxypropylcellulose) (HPC).
Where [3] appears, read: dose: 400.0 mg/kg/injection, schedule: Q04DX003 (ip), vehicle: Klucel (hydroxypropylcellulose) (HPC).
Setting [4] is: dose: 100.0 mg/kg/injection, schedule: Q04DX003 (ip), vehicle: saline.
Where [5] appears, read: dose: 200.0 mg/kg/injection, schedule: Q04DX003 (ip), vehicle: saline.
Where [6] appears, read: dose: 400.0 mg/kg/injection, schedule: Q04DX003 (ip), vehicle: saline.
[7] abbreviates: dose: 100.0 mg/kg/injection, schedule: Q04DX003 (ip), vehicle: saline with Tween-80.
Setting [8] is: dose: 1.56 mg/kg/injection, schedule: Q01DX009 (ip), vehicle: Klucel (hydroxypropylcellulose) (HPC).
Where [9] appears, read: dose: 3.12 mg/kg/injection, schedule: Q01DX009 (ip), vehicle: Klucel (hydroxypropylcellulose) (HPC).
Setting [10] is: dose: 200.0 mg/kg/injection, schedule: Q04DX003 (ip), vehicle: saline with Tween-80.
Where [11] appears, read: dose: 50.0 mg/kg/injection, schedule: Q01DX009 (ip), vehicle: saline with Tween-80.
Setting [12] is: dose: 200.0 mg/kg/injection, schedule: Q01DX009 (ip), vehicle: saline with Tween-80.
Where [13] appears, read: dose: 0.8 micrograms/kg/injection, schedule: Q01DX009 (ip), vehicle: saline + alcohol.
Where [14] appears, read: dose: 3.1 micrograms/kg/injection, schedule: Q01DX009 (ip), vehicle: saline + alcohol.
The mark [15] stands for this setting: dose: 6.2 micrograms/kg/injection, schedule: Q01DX009 (ip), vehicle: saline + alcohol.
[16] abbreviates: dose: 12.5 micrograms/kg/injection, schedule: Q01DX009 (ip), vehicle: saline + alcohol.
[17] abbreviates: dose: 25.0 micrograms/kg/injection, schedule: Q01DX009 (ip), vehicle: saline + alcohol.
The mark [18] stands for this setting: dose: 50.0 mg/kg/injection, schedule: Q01DX009 (ip), vehicle: Klucel (hydroxypropylcellulose) (HPC).
Where [19] appears, read: dose: 100.0 mg/kg/injection, schedule: Q01DX009 (ip), vehicle: Klucel (hydroxypropylcellulose) (HPC).
Setting [20] is: dose: 200.0 mg/kg/injection, schedule: Q01DX009 (ip), vehicle: Klucel (hydroxypropylcellulose) (HPC).

Regarding `O=S(=O)(Cc1ccc(Cl)cc1)c1nc2ccccc2s1`, the T/C (dose: 50.0 mg/kg/injection, schedule: Q01DX005 (ip), vehicle: saline with Tween-80) is 107 % of control and the T/C (dose: 100.0 mg/kg/injection, schedule: Q01DX005 (ip), vehicle: saline with Tween-80) is 105 % of control.

For `CCOC(=O)C1CCCC23CC(CC12)C(C)(C)C3Br` (configuration not stated), the T/C under setting [1] is 100 % of control, the T/C under setting [2] was 90 % of control and the T/C under setting [3] is 100 % of control.

For the compound `CCCCCCCCC(=O)CCCCC`, the T/C by setting is: under setting [4], 100 % of control; under setting [5], 91 % of control; under setting [6], 95 % of control.

Turning to `O=CNC(Cc1ccc(O)cc1)C(=O)O` (configuration not stated), the T/C under setting [4] was 110 % of control, the T/C under setting [5] was 100 % of control and the T/C under setting [6] was 100 % of control.

As for `Cc1ccc(S(=O)(=O)OCCN(CCOS(=O)(=O)c2ccc(C)cc2)c2ccc(C=O)cc2)cc1`, the T/C is 191 % of control (dose: 66.0 mg/kg/injection, schedule: Q04DX003 (ip), vehicle: saline with Tween-80); 250 % of control under setting [7]; 204 % of control (dose: 150.0 mg/kg/injection, schedule: Q04DX003 (ip), vehicle: saline with Tween-80).

As for `c1ccc(C2=C([P+](c3ccccc3)(c3ccccc3)c3ccccc3)CCN2)cc1`, the T/C (dose: 12.5 mg/kg/injection, schedule: Q01DX009 (ip), vehicle: saline with Tween-80) was 100 % of control.

In the case of `CCOC(=O)N1Cc2cc3ccccc3nc2C1CC(=O)O` (configuration not stated), the T/C was 100 % of control under setting [1], 100 % of control under setting [2] and 104 % of control under setting [3].

With `COc1cc(/C=N/N=C(\N)N[N+](=O)[O-])cc(OC)c1OC`, the T/C (dose: 100.0 mg/kg/injection, schedule: Q01DX001 (ip), vehicle: saline with Tween-80) is 90 % of control; the T/C (dose: 200.0 mg/kg/injection, schedule: Q01DX001 (ip), vehicle: saline with Tween-80) is 90 % of control; the T/C (dose: 400.0 mg/kg/injection, schedule: Q01DX001 (ip), vehicle: saline with Tween-80) was 90 % of control.

Consider `Cc1ccnc(NS(=O)(=O)c2ccc(N=Nc3nc4[nH]c(N)nc(=S)c4[nH]3)cc2)n1`, for which the T/C was 151 % of control under setting [8]; 112 % of control under setting [9]; 108 % of control (dose: 6.25 mg/kg/injection, schedule: Q01DX009 (ip), vehicle: Klucel (hydroxypropylcellulose) (HPC)).

Take `Oc1cccc2c1[O][Sb][O]2`: the T/C was 102 % of control (dose: 3.0 mg/kg/injection, schedule: Q01DX009 (ip), vehicle: saline with Tween-80); 110 % of control (dose: 6.0 mg/kg/injection, schedule: Q01DX009 (ip), vehicle: saline with Tween-80); 112 % of control (dose: 11.0 mg/kg/injection, schedule: Q04DX003 (ip), vehicle: saline with Tween-80); 112 % of control (dose: 16.5 mg/kg/injection, schedule: Q04DX003 (ip), vehicle: saline with Tween-80); 110 % of control (dose: 25.0 mg/kg/injection, schedule: Q01DX009 (ip), vehicle: saline with Tween-80).

As to `COc1ccc2c(c1)CCC1C2CCC2(C)/C(=N/O)C(Cl)C(O)C12` (configuration not stated), the T/C by setting is: (dose: 6.25 mg/kg/injection, schedule: Q01DX001 (ip), vehicle: saline with Tween-80) 100 % of control; (dose: 12.5 mg/kg/injection, schedule: Q01DX001 (ip), vehicle: saline with Tween-80) 109 % of control; (dose: 25.0 mg/kg/injection, schedule: Q01DX001 (ip), vehicle: saline with Tween-80) 97 % of control.

As to `O=C(CC(=O)C(F)(F)F)c1ccc2c(c1)Cc1ccccc1-2`, the T/C is 124 % of control under setting [7] and 111 % of control under setting [10].

For `Cc1ncc([N+](=O)[O-])n1CCSC(N)=O`, the T/C reads like this: under setting [7], 120 % of control; under setting [10], 160 % of control.

In the case of `C[P+](Cc1ccc([N+](=O)[O-])cc1)(c1ccccc1)c1ccccc1`, the T/C by setting is: under setting [8], 96 % of control; under setting [9], 88 % of control; (dose: 12.5 mg/kg/injection, schedule: Q01DX009 (ip), vehicle: Klucel (hydroxypropylcellulose) (HPC)) 89 % of control; (dose: 12.5 mg/kg/injection, schedule: Q04DX003 (ip), vehicle: Klucel (hydroxypropylcellulose) (HPC)) 100 % of control; (dose: 50.0 mg/kg/injection, schedule: Q04DX003 (ip), vehicle: Klucel (hydroxypropylcellulose) (HPC)) 104 % of control.

Take `CSC(=O)OCC1=CC2OC(=O)C3=COC(OC4OC(CO)C(O)C(O)C4O)C1C32` (configuration not stated): the T/C (dose: 2.0 mg/kg/injection, schedule: Q01DX009 (ip), vehicle: saline with Tween-80) was 101 % of control; the T/C (dose: 4.0 mg/kg/injection, schedule: Q01DX009 (ip), vehicle: saline with Tween-80) is 101 % of control; the T/C (dose: 16.0 mg/kg/injection, schedule: Q01DX009 (ip), vehicle: saline with Tween-80) is 111 % of control.

For the compound `Cn1c(=O)c2c(c3ccccc31)Oc1oc3ccc4ccccc4c3c(=O)c1C2`, the T/C by setting is: under setting [11], 91 % of control; under setting [12], 94 % of control.

With `COc1cc2cc(c1Cl)N(C)C(=O)CC(OC(=O)C(F)(F)F)C1(C)OC1C(C)C1CC(O)(NC(=O)O1)C(OC)C=C/C=C(\C)C2` (configuration not stated), the T/C is, setting by setting: under setting [13], 110 % of control; (dose: 1.5 micrograms/kg/injection, schedule: Q01DX009 (ip), vehicle: saline + alcohol) 100 % of control; (dose: 1.8 micrograms/kg/injection, schedule: Q01DX009 (ip), vehicle: saline + alcohol) 107 % of control; under setting [14], 98 % of control and 100 % of control; under setting [15], 98 % of control and 108 % of control; under setting [16], 96 % of control and 120 % of control. Besides, the T/C by setting is: under setting [17], 96 % of control; (dose: 50.0 micrograms/kg/injection, schedule: Q01DX009 (ip), vehicle: saline + alcohol) 107 % of control; (dose: 100.0 micrograms/kg/injection, schedule: Q01DX009 (ip), vehicle: saline + alcohol) 91 % of control and 108 % of control; (dose: 200.0 micrograms/kg/injection, schedule: Q01DX009 (ip), vehicle: saline + alcohol) 91 % of control; (dose: 400.0 micrograms/kg/injection, schedule: Q01DX009 (ip), vehicle: saline + alcohol) 117 % of control.

Take `C[S+](C)N(c1ccccc1)C(C)(C)C`: the T/C is 99 % of control (dose: 12.5 mg/kg/injection, schedule: Q04DX003 (ip), vehicle: saline with Tween-80); 104 % of control (dose: 25.0 mg/kg/injection, schedule: Q04DX003 (ip), vehicle: saline with Tween-80); 89 % of control (dose: 50.0 mg/kg/injection, schedule: Q04DX003 (ip), vehicle: saline with Tween-80).

Consider `O=S1(=O)CCN(C2CCCCCC2)CC1`, for which the T/C under setting [18] was 106 % of control, the T/C under setting [19] was 111 % of control and the T/C under setting [20] was 109 % of control.

As for `CS(=O)(=O)CC(O)(c1ccccc1)c1ccncc1` (configuration not stated), the T/C reads like this: under setting [11], 96 % of control; (dose: 100.0 mg/kg/injection, schedule: Q01DX009 (ip), vehicle: saline with Tween-80) 90 % of control; under setting [12], 98 % of control.

As for `COc1cc2cc(c1Cl)N(C)C(=O)C[C@H](OC(=O)[C@H](C)N(C)C(=O)CC(C)C)[C@]1(C)O[C@H]1[C@H](C)[C@@H]1C[C@@](O)(NC(=O)O1)[C@H](OC)C=C/C=C(\C)C2`, the T/C is 120 % of control (dose: 0.1 micrograms/kg/injection, schedule: Q01DX009 (ip), vehicle: saline + alcohol); 174 % of control (dose: 0.4 micrograms/kg/injection, schedule: Q01DX009 (ip), vehicle: saline + alcohol); 158 % of control under setting [13]; 154 % of control (dose: 1.6 micrograms/kg/injection, schedule: Q01DX009 (ip), vehicle: saline + alcohol); 158 % of control and 165 % of control under setting [14]; 154 % of control and 201 % of control under setting [15]. The T/C was 177 % of control and 187 % of control under setting [16]; 116 % of control under setting [17].

On to `O=C1C(Cl)CCCCC1Cl` (configuration not stated), for which the T/C was 100 % of control under setting [18], 100 % of control under setting [19] and 115 % of control under setting [20].
